Measured values taken from ChEMBL document CHEMBL1201862, “PubChem BioAssay data set” (2004).
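Interpolation was linear, between the two tested concentrations surrounding the appropriate level; five concentrations were tested over 48 hours in 96-well plates. GI50 marks 50% less growth.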 The source made the active and inactive calls. Cut-off read from the data, not from the text of the source: active = GI50 up to about 1.1 µM and inactive = higher.

Key:
Assay in all cases: NCI-60 cell line screen, 48 h
[1] = system: SW-620
[2] = system: K562
[3] = system: CCRF-CEM
[4] = system: MDA-MB-231
[5] = system: SF-539
[6] = system: A498
[7] = system: MDA-MB-435
[8] = system: SF-295
[9] = system: HOP-92
[10] = system: UACC-257
[11] = system: SNB-19
[12] = system: OVCAR-3
[13] = system: HT-29
[14] = system: KM12
[15] = system: HCT-15
[16] = system: TK-10
[17] = system: SF-268
[18] = system: U-251
[19] = system: HOP-62

Measured: GI50

Cc1cn(CCCCCCC2=NCCCN2)c(=O)[nH]c1=O
> 100 µM: [15]
inactive: [1] > 100 µM | [2] > 100 µM | [3] > 100 µM | [4] > 100 µM | [5] > 100 µM | [6] > 100 µM | [7] > 100 µM | [8] > 100 µM | [9] > 100 µM | [10] > 100 µM | [11] > 100 µM | [12] > 100 µM | [13] > 100 µM | [14] > 100 µM | [16] > 100 µM | [17] > 100 µM | [18] > 100 µM | [19] > 100 µM

CCOC(=O)c1ccc2c(c1)nc1n2C(c2c(F)cccc2F)SC1 (centres undefined)
23.3 µM: [15]
inactive: [1] 54.6 µM | [2] 29.1 µM | [3] 33.5 µM | [4] > 100 µM | [5] 21.4 µM | [6] > 100 µM | [7] 30.6 µM | [8] 21.5 µM | [9] 40.6 µM | [10] 38 µM | [11] 12.2 µM | [12] 17.8 µM | [13] 19 µM | [14] 17.1 µM | [16] 80.9 µM | [17] 32.8 µM | [18] 55.6 µM | [19] 31.9 µM

C=C1CCCC2[C@](C)(CC3=C(Cl)C(=O)C=C(OC)C3=O)C(C)CC[C@]12C (some centres undefined)
inactive: [1] 3.02 µM | [2] 1.67 µM | [3] 1.45 µM | [4] 7.6 µM | [5] 2.33 µM | [6] 8.49 µM | [7] 6.62 µM | [8] 7.41 µM | [9] 6.12 µM | [10] 5.89 µM | [11] 7.21 µM | [12] 5.93 µM | [13] 2.51 µM | [14] 2.26 µM | [16] 4.34 µM | [17] 5.09 µM | [18] 3.44 µM | [19] 6.55 µM
3.46 µM: [15]

COc1ccc(-[n+]2nc(S(=O)(=O)O)c(/C=C/c3ccc(N(C)C)cc3)cc2C#N)cc1
> 100 µM: [15]
inactive: [1] > 100 µM | [2] > 100 µM | [3] > 100 µM | [4] > 100 µM | [5] > 100 µM | [6] > 100 µM | [7] > 100 µM | [8] > 100 µM | [9] > 100 µM | [10] > 100 µM | [11] > 100 µM | [12] > 100 µM | [13] > 100 µM | [14] > 100 µM | [16] > 100 µM | [17] > 100 µM | [18] > 100 µM | [19] > 100 µM

Cc1csc(-n2c(C)nc3cc(Cl)ccc3c2=O)n1
67.5 µM: [15]
inactive: [1] > 100 µM | [2] 83.6 µM | [3] 74.8 µM | [4] > 100 µM | [5] > 100 µM | [6] > 100 µM | [7] > 100 µM | [8] > 100 µM | [9] 10.4 µM | [10] 91.6 µM | [11] > 100 µM | [12] 78.9 µM | [13] > 100 µM | [14] > 100 µM | [16] > 100 µM | [17] 42.8 µM | [18] > 100 µM | [19] > 100 µM

COc1ccc(-c2nc(SCC(=O)N/N=C/c3ccc(O)c(OC)c3)[nH]c2-c2ccc(OC)cc2)cc1
inactive: [1] 30.8 µM | [2] 20 µM | [3] 3.44 µM | [4] 24.7 µM | [5] 21.4 µM | [6] 18.8 µM | [7] 32.4 µM | [8] 20.2 µM | [9] 23.7 µM | [10] 25.5 µM | [11] 41.1 µM | [12] 18.8 µM | [13] 21.9 µM | [14] 33.3 µM | [16] 41 µM | [17] 54.6 µM | [18] 19.7 µM | [19] 24.6 µM
24.2 µM: [15]

COc1cc(O)c(C(=O)/C=C/c2ccc(O)cc2)cc1Oc1ccc(C(=O)/C=C/c2ccc(O)cc2)c(O)c1 [RHUSCHALCONE IV]
inactive: [1] 3.36 µM | [2] 3.39 µM | [3] 2.66 µM | [4] 3.6 µM | [5] 2.37 µM | [6] 2.05 µM | [7] 3.4 µM | [8] 3.76 µM | [9] 4.36 µM | [10] 6.19 µM | [11] 4.53 µM | [12] 2.87 µM | [13] 1.36 µM | [14] 1.44 µM | [16] 3.42 µM | [17] 2.96 µM | [18] 1.93 µM | [19] 4.47 µM
1.79 µM: [15]

CCCCc1cc2c(C)cc(=O)oc2c(O)c1O
inactive: [1] 28.2 µM | [2] 27.4 µM | [3] 21.3 µM | [4] 13.6 µM | [5] 21.8 µM | [6] 26.5 µM | [7] 30.6 µM | [8] 22.2 µM | [9] 19.4 µM | [10] 20.4 µM | [11] 37.9 µM | [12] 29.1 µM | [13] 27.9 µM | [14] 25.1 µM | [16] 85.9 µM | [17] 38.8 µM | [18] 23.7 µM | [19] 23.3 µM
26.9 µM: [15]

O=c1c2ccccc2nc(-c2ccccc2)n1/N=C/c1ccccc1[N+](=O)[O-]
inactive: [1] > 100 µM | [2] > 100 µM | [3] > 100 µM | [4] 17.7 µM | [5] 19.9 µM | [6] > 75.2 µM | [7] > 100 µM | [8] 22.8 µM | [9] 29.2 µM | [10] > 100 µM | [11] 17 µM | [12] > 100 µM | [13] > 100 µM | [14] 57.4 µM | [16] 28.3 µM | [17] 16.3 µM | [18] 16.1 µM | [19] 13.6 µM
> 100 µM: [15]

COc1cc2c(cc1OC(=O)c1cc3ccccc3[nH]1)N=C[C@@H]1CCCN1C2=O
0.475 µM: [15]
active: [1] 0.325 µM | [2] 0.306 µM | [3] 0.255 µM | [4] 0.418 µM | [5] 0.281 µM | [6] 0.219 µM | [7] 0.316 µM | [8] 1.03 µM | [9] 0.542 µM | [10] 0.268 µM | [11] 0.352 µM | [12] 0.296 µM | [13] 0.185 µM | [14] 0.433 µM | [16] 0.355 µM | [17] 0.706 µM | [18] 0.292 µM | [19] 0.363 µM

CCN(CC)C1Oc2cc3c(cc2C(c2cc(OC)c(O)c(OC)c2)C1C)OCO3 (centres undefined)
inactive: [1] 4.62 µM | [2] 2.98 µM | [3] 7.29 µM | [4] 18.8 µM | [5] 11.3 µM | [6] 24.6 µM | [7] 2.14 µM | [8] 5.22 µM | [9] 15.5 µM | [10] 25 µM | [11] 16.2 µM | [12] 7.21 µM | [13] 7.31 µM | [14] 4.44 µM | [16] 24.9 µM | [17] 16.3 µM | [18] 10.5 µM | [19] 10.1 µM
12.6 µM: [15]
